According to ChEMBL document CHEMBL1149680, “Unique spirocyclopiperazinium salt. Part 4: modification of dispirocyclopiperazinium (DSPZ) salts as analgesics” (Bioorg Med Chem Lett, 2007):

Legend:
[1] = tested on: Mus musculus; experiment: Analgesic activity against acetic acid-induced writhing in mouse at 0.04 mmol/kg, sc relative to control; type: functional
[2] = tested on: Mus musculus; experiment: Analgesic activity in mouse assessed as latency time at 0.04 mmol/kg, sc by hot plate method relative to control; type: functional

C(CN1CC[N+]2(CCCC2)CC1)CN1CC[N+]2(CCCC2)CC1.[Br-].[Br-]
inhibition in vivo at 40 µmol/kg [1]: 81% | Activity [2]: 64.2%
